We go through 29 compounds from US11098043B2, “Certain imidazopyridines as cyclic AMP response element binding (CREB) binding protein (CBP) inhibitors and uses thereof” (University of Massachusetts, priority 2017, dated 2021).

Structures are written as SMILES.

One experiment concerns the target T1, CBP bromodomain (Homo sapiens, UniProt Q92793).
T1 construct: docked complex of Compound 21 with CBP bromodomain
Put plainly: AlphaScreen in vitro binding assay with CBP. Conditions: for IC50: AlphaScreen, isolated CBP bromodomain, means of at least two determinations; for Selectivity Value [BRD4(1) IC50 (μM)/CBP IC50 (μM)]: ratio BRD4(1) IC50 / CBP IC50. On the procedure: (§1) To determine the binding selectivity of compounds provided, AlphaScreen in vitro binding assays were performed with either CBP or BRD4.
(§2) Assays were performed with minor modifications from the manufacturer's protocol (Perkin Elmer, USA). All reagents were diluted in AlphaScreen™ buffer (50 mM HEPES, 150 mM NaCl, 0.01% v/v Tween-20, 0.1% w/v BSA, pH 7.4). After addition of Alpha beads to master solutions, all subsequent steps were performed under low light conditions. A 2× solution of components with final concentrations of His-BRD4(1) at 20 nM or His-CBP at 50 nM, Ni-coated Acceptor bead at 10 μg/ml, and biotinylated-JQ1 at 10 nM or biotinylated peptide at 100 nM was added in 10 μL to 384-well plates (AlphaPlate-384, PerkinElmer) using an EL406 liquid handler (Biotek, USA). Plates were spun down at 1000 rpm. A 10-point 1: √{square root over (sqrt(10))} serial dilution of compounds in DMSO was prepared at 200× the final concentration. 100 nL of compound from these stock plates were added by pin transfer using a Janus Workstation (PerkinElmer). A 2× solution of streptavidin-coated donor beads with a final concentration of 10 μg/ml was added in a 10 μL volume. The plates were spun down again at 1000 rpm and sealed with foil to prevent light exposure and evaporation. The plates were then incubated at room temperature for 1 hour and read on an Envision 2104 (PerkinElmer) using the manufacturer's protocol. IC50 values were calculated using a 4-parameter logistic curve in Prism 6 (GraphPad Software, USA) after normalization to DMSO-treated negative control wells.
(In general: Alpha assays give light when donor and acceptor beads are brought close together.)

The target in another experiment is T2, BRD4(1) bromodomain (Homo sapiens, UniProt O60885).
T2 construct: final concentrations of His-BRD4(1) at 20 nM
Put plainly: AlphaScreen in vitro binding assay with BRD4. Conditions: isolated BRD4 bromodomain, means of at least two determinations. The method, then: as §1
as §2, with “A 2× solution of components with final concentrations of His-BRD4(1) at 20 nM or His-CBP at 50 nM, Ni-coated Acceptor bead at 10 μg/ml, and biotinylated-JQ1 at 10 nM or biotinylated peptide at 100 nM was added in 10 μL to 384-well plates (AlphaPlate-384, PerkinElmer) using an EL406 liquid handler (Biotek, USA).” left out

T1 sequence (Q92793 1085-1192 limits assumed): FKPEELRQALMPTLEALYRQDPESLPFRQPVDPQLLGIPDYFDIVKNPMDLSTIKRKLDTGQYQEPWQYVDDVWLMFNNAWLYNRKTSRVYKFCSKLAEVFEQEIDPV

On to `COc1ccc(CCc2nc3cc(-c4c(C)noc4C)ccn3c2NC(C)(C)C)cc1` [Compound 20], for which, on CBP bromodomain, the IC50 (in general, the concentration at which inhibition is half-maximal) is 2.34 µM and the “Selectivity Value [BRD4(1) IC50 (μM)/CBP IC50 (μM)]” value (“Selectivity Value” below) is more than 21.
On to `COc1ccc(CCc2nc3cc(-c4c(C)noc4C)ccn3c2NC(C)(C)CC(C)(C)C)cc1` [Compound 28, 7-(3,5-dimethylisoxazol-4-yl)-2-(4-methoxyphenethyl)-N-(2,4,4-trimethylpentan-2-yl)imidazo[1,2-a]pyridin-3-amine], for which, at CBP bromodomain, the IC50 came to 20.9 µM and the “Selectivity Value” value is more than 2.
In the case of `COc1ccc(CCc2nc3cc(-c4c(C)noc4C)ccn3c2NC2CCCCC2)cc1` [Compound 18, N-cyclohexyl-7-(3,5-dimethylisoxazol-4-yl)-2-(4-methoxyphenethyl)imidazo[1,2-a]pyridin-3-amine], the IC50 at BRD4(1) bromodomain was found to be 6.59 µM. Further, at CBP bromodomain, the IC50 is 0.159 µM and the “Selectivity Value” value is 41.
For the compound `COc1ccc(-c2nc3cc(-c4c(C)noc4C)ccn3c2NC23CC4CC(CC(C4)C2)C3)cc1` [Compound 2], at CBP bromodomain, the IC50 was 2.22 µM and the “Selectivity Value” value was more than 23.
The compound `CCOc1ccc(CCc2nc3cc(-c4c(C)noc4C)ccn3c2NC2CCCCC2)cc1` [Compound 22, N-cyclohexyl-7-(3,5-dimethylisoxazol-4-yl)-2-(4-ethoxyphenethyl)imidazo[1,2-a]pyridin-3-amine] had an IC50 at BRD4(1) bromodomain of 6.48 µM. Also, at CBP bromodomain, the IC50 worked out at 0.214 µM and the “Selectivity Value” value came to 30.
With `Cc1noc(C)c1-c1ccn2c(NC3CCCCC3)c(CCc3ccccc3)nc2c1` [Compound 5, N-cyclohexyl-7-(3,5-dimethylisoxazol-4-yl)-2-phenethylimidazo[1,2-a]pyridin-3-amine], the IC50 at BRD4(1) bromodomain was 7.43 µM; on CBP bromodomain it was 0.718 µM. Also, at CBP bromodomain, the “Selectivity Value” value is listed as 10.
The matching figures for `COc1ccc(CCCc2nc3cc(-c4c(C)noc4C)ccn3c2NC2CCCCC2)cc1` [Compound 27, N-cyclohexyl-7-(3,5-dimethylisoxazol-4-yl)-2-(3-(4-methoxyphenyl)propyl)imidazo[1,2-a]pyridin-3-amine]: 12.3 µM, 4.95 µM and 3.
As for `COc1ccc(-c2nc3cc(C)cc(C)n3c2NC(C)(C)CC(C)(C)C)cc1` [Compound 8, 2-(4-methoxyphenyl)-5,7-dimethyl-N-(2,4,4-trimethylpentan-2-yl)imidazo[1,2-a]pyridin-3-amine], at CBP bromodomain, the IC50 was found to be 16.3 µM and the “Selectivity Value” value is given as more than 3.
In the case of `Cc1noc(C)c1-c1ccn2c(NC(C)(C)C)c(CCc3ccccc3)nc2c1` [Compound 14, N-(tert-butyl)-7-(3,5-dimethylisoxazol-4-yl)-2-phenethylimidazo[1,2-a]pyridin-3-amine], the half-maximal inhibitory concentration (IC50) at BRD4(1) bromodomain was 5.64 µM. Moreover, at CBP bromodomain, the IC50 was determined as 0.956 µM and the “Selectivity Value” value stood at 6.
Regarding `COc1ccc(Cc2nc3cc(-c4c(C)noc4C)ccn3c2NC2CCCCC2)cc1` [Compound 26], the IC50 on BRD4(1) bromodomain worked out at 11.2 µM. At CBP bromodomain, the IC50 was 6.07 µM and the “Selectivity Value” value is listed as 2.
For the compound `COc1ccc(-c2nc3cc(-c4c(C)noc4C)ccn3c2NC2CCCCC2)cc1` [Compound 3], at CBP bromodomain, the IC50 is 14.2 µM and the “Selectivity Value” value is more than 4.
With `Cc1sc2c(c1C)C(c1ccc(Cl)cc1)=N[C@@H](CC(=O)OC(C)(C)C)c1nnc(C)n1-2` [JQ1, reference compound], the IC50 on CBP bromodomain was more than 50 µM.
At BRD4(1) bromodomain, `CCCOc1ccc(CCc2nc3cc(-c4c(C)noc4C)ccn3c2NC2CCCCC2)cc1` [Compound 23] came in with an IC50 of 17.9 µM. At CBP bromodomain, the IC50 is 0.633 µM and the “Selectivity Value” value is listed as 28.
For the compound `Cc1noc(C)c1-c1ccn2c(NC(C)(C)CC(C)(C)C)c(CCc3ccccc3)nc2c1` [Compound 13, 7-(3,5-dimethylisoxazol-4-yl)-2-phenethyl-N-(2,4,4-trimethylpentan-2-yl)imidazo[1,2-a]pyridin-3-amine], the IC50 on BRD4(1) bromodomain was 2.77 µM; on CBP bromodomain, 1.88 µM. The “Selectivity Value” value at CBP bromodomain was found to be 1.
On the same counts, the results for `COc1ccc(CCc2nc3cc(-c4c(C)noc4C)ccn3c2NC(C)C)cc1OC` [Compound 34] are 22.6 µM, 3.52 µM and 6.
On the same counts, the results for `COc1ccc(CCc2nc3cc(-c4c(C)noc4C)ccn3c2NC2CCCCC2)cc1OC` [Compound 33] are 6.22 µM, 0.759 µM and 8.
Consider `CCOc1ccc(CCc2nc3cc(-c4c(C)noc4C)ccn3c2NC(C)(C)CC(C)(C)C)cc1` [Compound 29, 7-(3,5-dimethylisoxazol-4-yl)-2-(4-ethoxyphenethyl)-N-(2,4,4-trimethylpentan-2-yl)imidazo[1,2-a]pyridin-3-amine], for which the IC50 on BRD4(1) bromodomain was more than 50 µM; at CBP bromodomain, 38.5 µM. Moreover, the “Selectivity Value” value on CBP bromodomain is recorded as more than 1.
For the compound `COc1ccc(-c2nc3cc(-c4c(C)noc4C)ccn3c2NCC(=O)OC(C)(C)C)cc1` [Compound 7], the IC50 on BRD4(1) bromodomain turned out to be 2.96 µM. Also, on CBP bromodomain, the IC50 was 1.17 µM and the “Selectivity Value” value is recorded as 3.
`CN1Cc2cc(-c3ccn4c(NC5CCCCC5)c(CCc5ccccc5)nc4c3)ccc2NC1=O` [Compound 10]: the IC50 at BRD4(1) bromodomain amounted to 7.55 µM; on CBP bromodomain, 8.12 µM. Besides, the “Selectivity Value” value at CBP bromodomain is less than 1.
The matching figures for `COc1ccc(CCc2nc3cc(-c4c(C)noc4C)ccn3c2NC(C)C)cc1` [Compound 19, 7-(3,5-dimethylisoxazol-4-yl)-N-isopropyl-2-(4-methoxyphenethyl)imidazo[1,2-a]pyridin-3-amine]: 10.1 µM, 0.296 µM and 34.
For the compound `COc1ccc(CCc2nc3cc(-c4c(C)noc4C)ccn3c2N[C@H](C)c2ccccc2)cc1` [Compound 37], the IC50 at BRD4(1) bromodomain was 11 µM. In addition, at CBP bromodomain, the IC50 was 1.57 µM and the “Selectivity Value” value turned out to be 7.
On the same counts, the results for `Cc1noc2ccc(-c3ccn4c(NC5CCCCC5)c(CCc5ccccc5)nc4c3)cc12` [Compound 12] are 3.03 µM, more than 50 µM and less than 1.
Regarding `Cc1noc(C)c1-c1ccn2c(NCC(=O)OC(C)(C)C)c(CCc3ccccc3)nc2c1` [Compound 4], on CBP bromodomain, the IC50 is 7.83 µM and the “Selectivity Value” value was more than 6.
`CCOc1ccc(CCc2nc3cc(-c4c(C)noc4C)ccn3c2NC2CCCCC2)cc1Cl` [Compound 31]: at CBP bromodomain, the IC50 worked out at 2.54 µM and the “Selectivity Value” value turned out to be 20.
In the case of `COc1ccc(CCCc2nc3cc(-c4c(C)noc4C)ccn3c2NC(C)(C)CC(C)(C)C)cc1` [Compound 35], the “Selectivity Value” value at CBP bromodomain was determined as 1.
For the compound `Cc1noc(C)c1-c1ccn2c(NC(C)(C)CC(C)(C)C)c(CCc3ccc(OC(C)C)cc3)nc2c1` [Compound 30], on CBP bromodomain, the “Selectivity Value” value worked out at 1.
As for `CCOc1ccc(CCc2nc3cc(-c4c(C)noc4C)ccn3c2NC(C)(C)CC(C)(C)C)cc1Cl` [Compound 32], on CBP bromodomain, the IC50 amounted to 20.5 µM and the “Selectivity Value” value is on record as more than 2.
Turning to `COc1ccc(CCc2nc3cc(-c4c(C)noc4C)ccn3c2NC2CCCCC2)cc1Cl` [Compound 21, 2-(3-chloro-4-methoxyphenethyl)-N-cyclohexyl-7-(3,5-dimethylisoxazol-4-yl)imidazo[1,2-a]pyridin-3-amine], at BRD4(1) bromodomain, the IC50 came out at 5.19 µM. This counts as single-digit micromolar.
Take `COc1ccc(-c2nc3cc(C)cc(C)n3c2NC23CC4CC(CC(C4)C2)C3)cc1` [Compound 1, N-((3s,5s,7s)-adamantan-1-yl)-2-(4-methoxyphenyl)-5,7-dimethylimidazo[1,2-a]pyridin-3-amine]: at CBP bromodomain, the IC50 was 16.1 µM and the “Selectivity Value” value is more than 3.
